{"source": "paper PMC12051620", "about": "“Molecular basis underlying the specificity of an antagonist AA92593 for mammalian melanopsins” (The Journal of Biological Chemistry, 2025)", "key": {"mouse melanopsin": {"biological_target": "T1, mouse melanopsin (Mus musculus, UniProt Q9QXZ9)", "T1 construct": "the C-terminal amino acid residues (94, 140, 200, 214, 296, and 308 residues); expressed in transfected cells; host or cells: COS-1", "T1 sequence (Q9QXZ9 1-381 limits assumed)": "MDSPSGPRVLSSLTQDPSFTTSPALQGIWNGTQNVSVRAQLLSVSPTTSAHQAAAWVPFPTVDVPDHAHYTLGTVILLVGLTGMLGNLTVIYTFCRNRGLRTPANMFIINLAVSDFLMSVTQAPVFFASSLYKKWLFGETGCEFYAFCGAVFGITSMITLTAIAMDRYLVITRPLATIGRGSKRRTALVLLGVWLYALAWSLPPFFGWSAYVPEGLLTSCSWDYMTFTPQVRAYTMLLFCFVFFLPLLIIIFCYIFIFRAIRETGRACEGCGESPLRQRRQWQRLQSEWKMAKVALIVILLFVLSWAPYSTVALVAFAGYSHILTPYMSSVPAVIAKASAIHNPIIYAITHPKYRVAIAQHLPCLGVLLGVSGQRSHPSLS", "assay": "GsX GloSensor assay with exogenous Gsα WT", "assay_type": "cell-based", "conditions": "16.7 μM AA92593; COS-1 cells", "from_the_text": "(§1) Previous studies of human and mouse melanopsins reported that these melanopsins can activate not only Gq but Gs and Gi ([20], [21], [22]). Thus, we assessed the effect of AA92593 on Gsα WT or Gsα/i11 (with 11 C-terminal sequence of Giα) using the GsX GloSensor assay. In agreement with the promiscuous G protein-coupling of melanopsins, we observed light-dependent increase of GloSensor luminescence in COS-1 cells expressing Gsα or Gsα/i11 with human/mouse melanopsins (Fig. 1, G–J).\n(§2) For GloSensor assay, opsins, GloSensor assay sensor (coded by pGlo-22F), and NanoBiT-tagged G proteins were transiently expressed in COS-1 cells (kindly provided from Dr David Farrens, Oregon Health and Science University) using PEI as described previously ([24], [52]). […] For GFP-fluorescence microscopy, a 35-mm cell culture dish (IWAKI) was transfected with 2 μg melanopsin-GFP plasmid and 8 μg PEI in 400 μl Opti-mem and 1.2 ml D-MEM. […]\n(§3) The transfected COS-1 cells were incubated at 37 °C, 5% CO2 for 2 days, and the medium was aspirated and exchanged with 50 μl of HBSS (145 mM NaCl, 10 mM D-glucose, 5 mM KCl, 1 mM MgCl2, 1.7 mM CaCl2, 1.5 mM NaHCO3, 10 mM Hepes, pH 7.4), containing 33.3, 20, 10, 2, 0.2, 0.02, 0.002, or 0 μM AA92593, 0.5% dimetyl sulfoxide (DMSO), and 4% (vol/vol) GloSensor cAMP reagent stock solution. […] Luminescence was measured using GM-2000 or GM-3510 microplate reader (Promega). […]"}, "human melanopsin": {"biological_target": "T2, human melanopsin (Homo sapiens, UniProt Q9UHM6)", "T2 sequence (Q9UHM6 1-384 limits assumed)": "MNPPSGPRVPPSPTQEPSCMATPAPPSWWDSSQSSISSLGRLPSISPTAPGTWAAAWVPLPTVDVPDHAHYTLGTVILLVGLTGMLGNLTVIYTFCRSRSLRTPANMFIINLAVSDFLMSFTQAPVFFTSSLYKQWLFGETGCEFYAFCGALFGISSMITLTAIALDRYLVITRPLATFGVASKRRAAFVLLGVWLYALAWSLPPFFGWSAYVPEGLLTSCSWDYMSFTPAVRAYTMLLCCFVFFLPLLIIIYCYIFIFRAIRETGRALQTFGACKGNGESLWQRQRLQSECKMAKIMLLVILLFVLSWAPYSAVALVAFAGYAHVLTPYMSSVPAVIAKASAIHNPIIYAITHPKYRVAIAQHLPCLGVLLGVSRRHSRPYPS", "assay": "GsX GloSensor assay with exogenous Gsα WT", "assay_type": "cell-based", "parameters": "the C-terminal amino acid residues (94, 140, 200, 214, 296, and 308 residues); expressed in transfected cells; host or cells: COS-1", "conditions": "16.7 μM AA92593; COS-1 cells", "from_the_text": "as §1, §2, §3"}}, "data": [{"compound": "COc1ccc(S(=O)(=O)N2CCCCC2)cc1C", "note": "[AA92593]", "values": [{"measurement": "effect on melanopsin-induced cAMP responses via exogenous Gsα", "setting": "mouse melanopsin", "value": "can suppress"}, {"measurement": "effect on melanopsin-induced cAMP responses via exogenous Gsα", "setting": "human melanopsin", "value": "can suppress"}]}]}
